Patent US20160194299A1 (priority 2013, published 2016)
≈ marks a conversion by molar mass, not a printed value. Where two headings read alike, the source gives them in different places.

Tests used:
Mtb [1] = assay: microbe, parasite or virus in culture; assay type: cell-based, Mycobacterium tuberculosis; details: Mycobacterium tuberculosis, read-out: MIC (II)
Mtb [2] = assay: microbe, parasite or virus in culture; assay type: cell-based, Mycobacterium tuberculosis; details: Mycobacterium tuberculosis, read-out: MIC (III)
Mtb [3] = assay: microbe, parasite or virus in culture; assay type: cell-based, Mycobacterium tuberculosis; details: Mycobacterium tuberculosis, read-out: MIC (I)
in vitro = details: African green monkey

Row | Compound | MIC (Mtb [1]) [µg/mL] | MIC (Mtb [2]) [µg/mL] | MIC (Mtb [3]) [µg/mL] | CC50 (in vitro) [µg/mL]
1 | CCOC(=O)NC(=O)c1ccsc1NC(=O)c1csc(-c2ccncc2)n1 [Compound 2] | 1 to 3 (≈ 2.48 to 7.45 µM) | – | – | –
2 | COC(=O)NC(=O)c1ccsc1NC(=O)c1ccc(S(=O)(=O)N2CCCC2)cc1 [Compound 5] | < 1 | – | – | –
3 | CCOC(=O)NC(=O)c1ccsc1NC(=O)c1nc2cc(OC)ccc2s1 [Compound 6] | < 1 | – | – | –
4 | CCNC(=O)Nc1cc(C(=O)Nc2sccc2C(=O)NC(=O)OCC)ccn1 [Compound 7] | < 1 | – | – | –
5 | CCOC(=O)NC(=O)c1ccsc1NC(=O)c1ccnc(NC(=O)c2ccc(F)cc2)c1 [Compound 8] | 1 to 3 (≈ 2.19 to 6.57 µM) | – | – | –
6 | CCOC(=O)NC(=O)c1ccsc1NC(=O)c1ccc2c(c1)NC(=O)CS2 [Compound 9] | 1 to 3 (≈ 2.47 to 7.4 µM) | – | – | –
7 | C#CCNC(=O)[C@H](CCC1(C)N=N1)NC(=O)CCC(=O)Nc1cc(C(=O)Nc2sccc2C(=O)NC(=O)OCC)ccn1 [Compound 98] | 1 to 3 (≈ 1.64 to 4.91 µM) | – | – | –
8 | CC(C)OC(=O)NC(=O)c1cc(F)sc1NC(=O)c1cn2ccccc2n1 [Compound 339] | – | > 25 | < 1 | 25 to 50 (≈ 64 to 128 µM)
9 | CC(C)OC(=O)NC(=O)c1ccsc1NC(=O)c1cc2ncccn2n1 [Compound 340] | – | > 25 | < 1 | 25 to 50 (≈ 67 to 134 µM)
10 | CCOC(=O)NC(=O)c1cc(F)sc1NC(=O)c1cnc2ccnn2c1 [Compound 341] | – | > 25 | < 1 | 25 to 50 (≈ 66.3 to 133 µM)
11 | CC(C)OC(=O)NC(=O)c1cc(F)sc1NC(=O)c1nc2ccccc2s1 [Compound 342] | – | 5 to 25 (≈ 12.3 to 61.4 µM) | < 1 | 25 to 50 (≈ 61.4 to 123 µM)
12 | CCOC(=O)NC(=O)c1cc(F)sc1NC(=O)c1ccn2nccc2c1 [Compound 343] | – | > 25 | < 1 | < 25
13 | CC(C)OC(=O)NC(=O)c1cc(F)sc1NC(=O)c1nc2cccnc2s1 [Compound 344] | – | > 25 | < 1 | 25 to 50 (≈ 61.2 to 122 µM)
14 | CC(C)OC(=O)NC(=O)c1cc(F)sc1NC(=O)c1cc2ncccn2n1 [Compound 345] | – | > 25 | < 1 | 25 to 50 (≈ 63.9 to 128 µM)
15 | CC(C)OC(=O)NC(=O)c1cc(F)sc1NC(=O)c1ccn2nccc2c1 [Compound 346] | – | > 25 | 1 to 3 (≈ 2.56 to 7.68 µM) | < 25
16 | COC(=O)NC(=O)c1ccsc1NC(=O)c1cn2ccccc2n1 [Compound 347] | – | > 25 | > 3 | 25 to 50 (≈ 72.6 to 145 µM)
17 | O=C(NCC(F)(F)F)NC(=O)c1ccsc1NC(=O)c1nc2ccccc2s1 [Compound 349] | – | > 25 | > 3 | 25 to 50 (≈ 58.4 to 117 µM)
18 | CC(C)OC(=O)NC(=O)c1ccsc1NC(=O)c1cc2ccccn2n1 [Compound 352] | – | > 25 | < 1 | 25 to 50 (≈ 67.1 to 134 µM)
19 | CCOC(=O)NC(=O)c1ccsc1NC(=O)c1cnc2ccoc2c1 [Compound 353] | – | > 25 | 1 to 3 (≈ 2.78 to 8.35 µM) | 25 to 50 (≈ 69.6 to 139 µM)
20 | CC(C)OC(=O)NC(=O)c1ccsc1NC(=O)c1cnc2ccoc2c1 [Compound 354] | – | > 25 | > 3 | 25 to 50 (≈ 67 to 134 µM)
21 | CCOC(=O)NC(=O)c1ccsc1NC(=O)/C=C/c1ccncc1 [Compound 356] | – | > 25 | > 3 | 25 to 50 (≈ 72.4 to 145 µM)
22 | CCOC(=O)NC(=O)c1ccsc1NC(=O)/C=C/c1nc2ccccc2s1 [Compound 365] | – | > 25 | < 1 | < 25
23 | CC(C)OC(=O)NC(=O)c1ccsc1NC(=O)/C=C/c1nc2ccccc2s1 [Compound 366] | – | 5 to 25 (≈ 12 to 60.2 µM) | < 1 | < 25
24 | CC(=O)N1CCC(OC(=O)NC(=O)c2ccsc2NC(=O)c2nc3cnccc3s2)CC1 [Compound 367] | – | > 25 | > 3 | 25 to 50 (≈ 52.8 to 106 µM)
25 | CC(=O)N1CCC(OC(=O)NC(=O)c2ccsc2NC(=O)c2cnc3ccnn3c2)CC1 [Compound 368] | – | > 25 | > 3 | 25 to 50 (≈ 54.8 to 110 µM)
26 | O=C(NC(=O)c1ccsc1NC(=O)c1nc2cnccc2s1)OCCOCc1ccccc1 [Compound 369] | – | > 25 | < 1 | 25 to 50 (≈ 51.8 to 104 µM)

Row | Compound | MIC (Mtb [1]) [µg/mL] | MIC (Mtb [2]) [µg/mL] | MIC (Mtb [3]) [µg/mL] | CC50 (in vitro) [µg/mL]
27 | O=C(NC(=O)c1ccsc1NC(=O)c1nc2ccccc2s1)OCCOCc1ccccc1 [Compound 371] | – | 5 to 25 (≈ 10.4 to 51.9 µM) | < 1 | < 25
28 | COCCOC(=O)NC(=O)c1ccsc1NC(=O)c1cnc2ccnn2c1 [Compound 372] | – | > 25 | < 1 | 25 to 50 (≈ 64.2 to 128 µM)
29 | COCCOC(=O)NC(=O)c1ccsc1NC(=O)c1cn2ccccc2n1 [Compound 373] | – | > 25 | > 3 | 25 to 50 (≈ 64.4 to 129 µM)
30 | O=C(NC(=O)c1ccsc1NC(=O)c1cn2ccccc2n1)OCCOCc1ccccc1 [Compound 374] | – | > 25 | < 1 | 25 to 50 (≈ 53.8 to 108 µM)
31 | CC(=O)N1CCC(OC(=O)NC(=O)c2ccsc2NC(=O)c2cn3ccccc3n2)CC1 [Compound 375] | – | > 25 | > 3 | 25 to 50 (≈ 54.9 to 110 µM)
32 | CCOC(=O)N(C)C(=O)c1ccsc1NC(=O)c1nc2cnccc2s1 [Compound 376] | – | > 25 | > 3 | < 25
33 | CCOC(=O)N(C)C(=O)c1ccsc1NC(=O)c1cn2ccccc2n1 [Compound 377] | – | > 25 | > 3 | 25 to 50 (≈ 67.1 to 134 µM)
34 | CCOC(=O)NC(=O)c1ccsc1NC(=O)c1nsc2ccccc12 [Compound 378] | – | > 25 | > 3 | 25 to 50 (≈ 66.6 to 133 µM)
35 | O=C(NC(=O)c1ccsc1NC(=O)c1nc2cnccc2s1)OC1CCCC1 [Compound 380] | – | > 25 | < 1 | < 25
36 | O=C(NC(=O)c1ccsc1NC(=O)c1cn2ccccc2n1)OC1CCCCC1 [Compound 381] | – | > 25 | > 3 | < 25
37 | CN(C)C(=O)NC(=O)c1ccsc1NC(=O)c1cn2ccccc2n1 [Compound 383] | – | > 25 | > 3 | < 25
38 | CN(C)C(=O)NC(=O)c1ccsc1NC(=O)c1nc2cnccc2s1 [Compound 384] | – | > 25 | > 3 | < 25
39 | O=C(Nc1sccc1C(=O)NC(=O)N1CCOCC1)c1nc2cnccc2s1 [Compound 386] | – | > 25 | > 3 | < 25
40 | CCOC(=O)NC(=O)c1cc(F)sc1NC(=O)c1ccc2nccn2n1 [Compound 387] | – | > 25 | 1 to 3 (≈ 2.65 to 7.95 µM) | < 25
41 | O=C(NC(=O)c1cc(F)sc1NC(=O)c1nc2ccccc2s1)OCCN1CCOCC1 [Compound 388] | – | > 25 | < 1 | < 25
42 | CCOC(=O)NC(=O)c1cc(F)sc1NC(=O)c1nc2ncccc2s1 [Compound 389] | – | > 25 | 1 to 3 (≈ 2.54 to 7.61 µM) | < 25
43 | CC(C)OC(=O)NC(=O)c1ccsc1NC(=O)c1nc2ncccc2s1 [Compound 390] | – | > 25 | < 1 | < 25
44 | CC(C)OC(=O)NC(=O)c1cc(F)sc1NC(=O)c1nc2ncccc2s1 [Compound 391] | – | > 25 | < 1 | < 25
45 | CCOC(=O)NC(=O)c1ccsc1NC(=O)c1nc2ccc(NC(=O)CN)cc2s1 [Compound 393] | – | > 25 | > 3 | < 25
46 | CCOC(=O)NC(=O)c1ccsc1NC(=O)c1cnc2ccsc2c1 [Compound 394] | – | > 25 | < 1 | < 25
47 | CC(C)OC(=O)NC(=O)c1ccsc1NC(=O)c1cnc2ccsc2c1 [Compound 395] | – | > 25 | < 1 | < 25
48 | CCOC(=O)NC(=O)c1ccsc1NC(=O)c1nc2ccccc2o1 [Compound 396] | – | > 25 | < 1 | < 25
49 | CC(C)OC(=O)NC(=O)c1ccsc1NC(=O)c1nc2ccccc2o1 [Compound 397] | – | > 25 | < 1 | < 25
50 | CCOC(=O)NC(=O)c1ccsc1NC(=O)c1ccc2nccnc2c1 [Compound 398] | – | 5 to 25 (≈ 13.5 to 67.5 µM) | < 1 | < 25
51 | CC(C)OC(=O)NC(=O)c1ccsc1NC(=O)c1ccc2nccnc2c1 [Compound 399] | – | > 25 | < 1 | < 25
